Reference: patent US11814367B2, “Inhibitors of glycogen synthase 1 (GYS1) and methods of use thereof” (Maze Therapeutics, Inc., priority 2021, dated 2023)

Assays:
[1] = tested on: hGYS1 enzyme / glycogen synthesis in HeLa cells; assay: GYS1 cell based assay (glycogen synthesis, Glucose-glo); design: species or system human; conditions: Homo sapiens, HeLa, 24 h, 24 h incubation, 20 mM glucose, geometric mean of at least 2 runs
Procedure, shortened: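 HeLa cells starved 24 h in medium containing only 1× Glutamax were plated onto compound in medium with 20 mM glucose (1% DMSO final) for 24 h, 37 °C, 5% CO2. Acid lysates were Tris-quenched, glucoamylase-digested (pH 5.3, 1 h, 37 °C) and read by Glucose-glo luminescence. IC50 came from Hill fits, as geometric mean of ≥2 runs.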

[2] = molecular target: hGYS1 enzyme (recombinant hGYS1/GN1 protein) (Homo sapiens (Human), UniProt P13807); assay: GYS1 coupled enzyme assay (PK/LDH); format: biochemical; conditions: hGYS1/GN1 50 nM, UDP-Glucose 0.8 mM, G6P 1 mM; geometric mean of at least 2 runs
Sequence of hGYS1 enzyme (recombinant hGYS1/GN1 protein) (P13807 whole entry): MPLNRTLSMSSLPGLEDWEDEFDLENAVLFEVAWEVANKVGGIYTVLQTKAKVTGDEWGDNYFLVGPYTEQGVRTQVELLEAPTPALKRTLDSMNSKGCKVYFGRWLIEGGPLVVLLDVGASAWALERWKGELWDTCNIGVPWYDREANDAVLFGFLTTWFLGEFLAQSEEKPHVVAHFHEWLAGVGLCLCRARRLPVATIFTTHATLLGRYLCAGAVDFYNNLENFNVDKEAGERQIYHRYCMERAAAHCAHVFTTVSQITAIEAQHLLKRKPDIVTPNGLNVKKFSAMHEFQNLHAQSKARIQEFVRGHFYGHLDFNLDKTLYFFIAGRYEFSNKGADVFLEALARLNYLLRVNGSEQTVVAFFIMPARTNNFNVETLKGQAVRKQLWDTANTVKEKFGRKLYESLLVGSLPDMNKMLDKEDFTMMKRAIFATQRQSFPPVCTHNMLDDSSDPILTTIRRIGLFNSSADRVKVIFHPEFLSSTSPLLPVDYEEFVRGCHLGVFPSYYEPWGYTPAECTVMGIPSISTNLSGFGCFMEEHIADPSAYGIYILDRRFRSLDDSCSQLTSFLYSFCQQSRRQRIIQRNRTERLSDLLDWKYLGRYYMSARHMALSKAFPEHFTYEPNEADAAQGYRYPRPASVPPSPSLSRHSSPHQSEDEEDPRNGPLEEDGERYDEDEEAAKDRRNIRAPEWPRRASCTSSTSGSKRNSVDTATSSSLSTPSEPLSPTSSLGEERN
Sequence of hGYS1 enzyme (recombinant hGYS1/GN1 protein) (P46976 whole entry partner): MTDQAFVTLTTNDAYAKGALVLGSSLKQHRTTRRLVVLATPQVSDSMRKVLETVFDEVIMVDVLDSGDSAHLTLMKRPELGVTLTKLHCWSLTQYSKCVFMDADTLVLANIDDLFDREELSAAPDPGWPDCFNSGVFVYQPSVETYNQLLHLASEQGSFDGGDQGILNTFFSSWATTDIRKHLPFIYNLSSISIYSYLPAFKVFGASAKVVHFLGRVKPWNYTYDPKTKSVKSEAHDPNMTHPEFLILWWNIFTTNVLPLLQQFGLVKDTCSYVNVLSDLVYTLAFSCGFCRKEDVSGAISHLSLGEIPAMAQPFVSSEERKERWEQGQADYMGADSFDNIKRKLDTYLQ

[3] = molecular target: hGYS2 enzyme (recombinant hGYS2/GN1 protein) (Homo sapiens (Human), UniProt P54840); assay: GYS2 coupled enzyme assay (PK/LDH); format: biochemical; conditions: geometric mean of at least 2 assay runs on separate days, read-out: Avg_IC50
Sequence of hGYS2 enzyme (recombinant hGYS2/GN1 protein) (P54840 whole entry): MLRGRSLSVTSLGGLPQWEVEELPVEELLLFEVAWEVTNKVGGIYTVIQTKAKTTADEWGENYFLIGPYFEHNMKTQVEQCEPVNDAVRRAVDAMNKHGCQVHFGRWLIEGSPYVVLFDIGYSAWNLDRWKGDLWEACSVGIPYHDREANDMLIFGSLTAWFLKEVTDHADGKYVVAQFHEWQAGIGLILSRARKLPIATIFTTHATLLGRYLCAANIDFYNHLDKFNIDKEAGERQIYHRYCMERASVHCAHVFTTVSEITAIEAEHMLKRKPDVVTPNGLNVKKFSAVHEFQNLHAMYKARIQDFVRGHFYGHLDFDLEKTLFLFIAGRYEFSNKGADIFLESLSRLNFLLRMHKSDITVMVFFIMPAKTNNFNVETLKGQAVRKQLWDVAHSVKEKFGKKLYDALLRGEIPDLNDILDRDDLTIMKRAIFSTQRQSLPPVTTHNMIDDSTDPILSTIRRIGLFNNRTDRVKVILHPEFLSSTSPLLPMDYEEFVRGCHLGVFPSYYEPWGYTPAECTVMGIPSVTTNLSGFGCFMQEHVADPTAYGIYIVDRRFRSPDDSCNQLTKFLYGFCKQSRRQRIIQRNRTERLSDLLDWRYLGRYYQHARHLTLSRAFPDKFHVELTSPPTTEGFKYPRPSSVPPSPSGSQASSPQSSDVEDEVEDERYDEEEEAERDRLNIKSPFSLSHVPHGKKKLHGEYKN
Sequence of hGYS2 enzyme (recombinant hGYS2/GN1 protein) (P46976 whole entry partner): as the sequence (P46976 whole entry partner) above
Procedure, shortened: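 hGYS2/GN1 200 nM; UDP-Glc 2 mM; glycogen 0.2%; G6P 2 mM; PEP 2 mM, NADH 0.6 mM, PK/LDH 20 U/mL. 50 mM Tris pH 7.5, MgCl2, KCl, BSA, TCEP, 2.5% DMSO. Kinetic A340, 10 min. IC50 = geomean of ≥2 runs.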

| IC50 [1] [nM] | IC50 [2] [nM] | IC50 [3] [nM] | Compound |
| --- | --- | --- | --- |
| 7070 | 685 | > 100000 | CC1(c2ccc([C@@H](NC(=O)[C@@H]3C[C@@H](F)CN3C(=O)CN3CCNCC3=O)c3ccccc3)cc2F)CC1 [Compound 562, (2S,4R)-4-fluoro-N-[(S)-[3-fluoro-4-(1-methylcyclopropyl)phenyl](phenyl)methyl]-1-[2-(2-oxopiperazin-1-yl)acetyl]pyrrolidine-2-carboxamide] |
| 780 | 63 | > 100000 | Cn1cc(CC(=O)N2C[C@H](F)C[C@H]2C(=O)N[C@@H](c2ccccc2)c2ccc(C3(C)CC3)c(F)c2)c2ccccc21 [Compound 563, (2S,4R)-4-fluoro-N-[(S)-[3-fluoro-4-(1-methylcyclopropyl)phenyl](phenyl)methyl]-1-[2-(1-methyl-1H-indol-3-yl)acetyl]pyrrolidine-2-carboxamide] |
| 790 | 56 | > 100000 | Cn1nc(CC(=O)N2C[C@H](F)C[C@H]2C(=O)N[C@@H](c2ccccc2)c2ccc(C3(C)CC3)c(F)c2)c2ccccc21 [Compound 564, (2S,4R)-4-fluoro-N-[(S)-[3-fluoro-4-(1-methylcyclopropyl)phenyl](phenyl)methyl]-1-[2-(1-methyl-1H-indazol-3-yl)acetyl]pyrrolidine-2-carboxamide] |
| 1210 | 48 | > 100000 | CC1(c2ccc([C@@H](NC(=O)[C@@H]3C[C@@H](F)CN3C(=O)CNC(=O)N3CCOCC3)c3ccccc3)cc2F)CC1 [Compound 565, N-{2-[(2S,4R)-4-fluoro-2-{[(S)-[3-fluoro-4-(1-methylcyclopropyl)phenyl](phenyl)methyl]carbamoyl}pyrrolidin-1-yl]-2-oxoethyl}morpholine-4-carboxamide] |
| 770 | 46 | > 100000 | Cc1nc2ccccc2n1CC(=O)N1C[C@H](F)C[C@H]1C(=O)N[C@@H](c1ccccc1)c1ccc(C2(C)CC2)c(F)c1 [Compound 566, (2S,4R)-4-fluoro-N-[(S)-[3-fluoro-4-(1-methylcyclopropyl)phenyl](phenyl)methyl]-1-[2-(2-methyl-1H-1,3-benzodiazol-1-yl)acetyl]pyrrolidine-2-carboxamide] |
| 960 | 89 | 94200 | Cn1c(=O)n(CC(=O)N2C[C@H](F)C[C@H]2C(=O)N[C@@H](c2ccccc2)c2ccc(C3(C)CC3)c(F)c2)c2ccccc21 [Compound 568, (2S,4R)-4-fluoro-N-[(S)-[3-fluoro-4-(1-methylcyclopropyl)phenyl](phenyl)methyl]-1-[2-(3-methyl-2-oxo-2,3-dihydro-1H-1,3-benzodiazol-1-yl)acetyl]pyrrolidine-2-carboxamide] |
| 960 | 66 | > 100000 | Cn1c(=O)ccn(CC(=O)N2C[C@H](F)C[C@H]2C(=O)N[C@@H](c2ccccc2)c2ccc(C3(C)CC3)c(F)c2)c1=O [Compound 569, (2S,4R)-4-fluoro-N-[(S)-[3-fluoro-4-(1-methylcyclopropyl)phenyl](phenyl)methyl]-1-[2-(3-methyl-2,4-dioxo-1,2,3,4-tetrahydropyrimidin-1-yl)acetyl]pyrrolidine-2-carboxamide] |
| 1220 | 82 | > 100000 | CC1(c2ccc([C@@H](NC(=O)[C@@H]3C[C@@H](F)CN3C(=O)Cn3c(=O)[nH]c4ccccc43)c3ccccc3)cc2F)CC1 [Compound 570, (2S,4R)-4-fluoro-N-[(S)-[3-fluoro-4-(1-methylcyclopropyl)phenyl](phenyl)methyl]-1-[2-(2-oxo-2,3-dihydro-1H-1,3-benzodiazol-1-yl)acetyl]pyrrolidine-2-carboxamide] |
| 930 | 75 | > 100000 | CC1(c2ccc([C@@H](NC(=O)[C@@H]3C[C@@H](F)CN3C(=O)Cc3n[nH]c4ccccc34)c3ccccc3)cc2F)CC1 [Compound 571, (2S,4R)-4-fluoro-N-[(S)-[3-fluoro-4-(1-methylcyclopropyl)phenyl](phenyl)methyl]-1-[2-(1H-indazol-3-yl)acetyl]pyrrolidine-2-carboxamide] |
| 3600 | 205 | > 100000 | CC1(c2ccc([C@@H](NC(=O)[C@@H]3C[C@@H](F)CN3C(=O)CN3CC(=O)NCC3=O)c3ccccc3)cc2F)CC1 [Compound 572, (2S,4R)-1-[2-(2,5-dioxopiperazin-1-yl)acetyl]-4-fluoro-N-[(S)-[3-fluoro-4-(1-methylcyclopropyl)phenyl](phenyl)methyl]pyrrolidine-2-carboxamide] |
| 1660 | 178 | > 100000 | CC1(c2ccc([C@@H](NC(=O)[C@@H]3C[C@@H](F)CN3C(=O)CN3Cc4ccccc4C3=O)c3ccccc3)cc2F)CC1 [Compound 573, (2S,4R)-4-fluoro-N-[(S)-[3-fluoro-4-(1-methylcyclopropyl)phenyl](phenyl)methyl]-1-[2-(1-oxo-2,3-dihydro-1H-isoindol-2-yl)acetyl]pyrrolidine-2-carboxamide] |
| 2090 | 119 | > 100000 | CC1(c2ccc([C@@H](NC(=O)[C@@H]3C[C@@H](F)CN3C(=O)Cn3nnc4ccccc43)c3ccccc3)cc2F)CC1 [Compound 575, (2S,4R)-1-[2-(1H-1,2,3-benzotriazol-1-yl)acetyl]-4-fluoro-N-[(S)-[3-fluoro-4-(1-methylcyclopropyl)phenyl](phenyl)methyl]pyrrolidine-2-carboxamide] |
| 1800 | 85 | > 100000 | CC1(c2ccc([C@@H](NC(=O)[C@@H]3C[C@@H](F)CN3C(=O)CN3C(=O)Cc4ccccc43)c3ccccc3)cc2F)CC1 [Compound 576, (2S,4R)-4-fluoro-N-[(S)-[3-fluoro-4-(1-methylcyclopropyl)phenyl](phenyl)methyl]-1-[2-(2-oxo-2,3-dihydro-1H-indol-1-yl)acetyl]pyrrolidine-2-carboxamide] |
| 3980 | 478 | 41200 | CN1C(=O)C(CC(=O)N2C[C@H](F)C[C@H]2C(=O)N[C@@H](c2ccccc2)c2ccc(C3(C)CC3)c(F)c2)c2ccccc21 (stereo partly drawn) [Compound 577, (2S,4R)-4-fluoro-N-[(S)-[3-fluoro-4-(1-methylcyclopropyl)phenyl](phenyl)methyl]-1-[2-(1-methyl-2-oxo-2,3-dihydro-1H-indol-3-yl)acetyl]pyrrolidine-2-carboxamide] |
| 6660 | 613 | 79300 | CC1(c2ccc([C@@H](NC(=O)[C@@H]3C[C@@H](F)CN3C(=O)CN3CCN(C(=O)OCC(F)(F)F)CC3=O)c3ccccc3)cc2F)CC1 [Compound 578, 2,2,2-trifluoroethyl 4-{2-[(2S,4R)-4-fluoro-2-{[(S)-[3-fluoro-4-(1-methylcyclopropyl)phenyl](phenyl)methyl]carbamoyl}pyrrolidin-1-yl]-2-oxoethyl}-3-oxopiperazine-1-carboxylate] |
| 1830 | 59 | > 100000 | COCCN1CCN(C(=O)OCC(=O)N2C[C@H](F)C[C@H]2C(=O)N[C@@H](c2ccccc2)c2ccc(C3(C)CC3)c(F)c2)CC1 [Compound 579, 2-[(2S,4R)-4-fluoro-2-{[(S)-[3-fluoro-4-(1-methylcyclopropyl)phenyl](phenyl)methyl]carbamoyl}pyrrolidin-1-yl]-2-oxoethyl 4-(2-methoxyethyl) piperazine-1-carboxylate] |
| 4270 | 249 | > 100000 | CC1(c2ccc([C@@H](NC(=O)[C@@H]3C[C@@H](F)CN3C(=O)CN3CCN(CC(F)(F)F)CC3=O)c3ccccc3)cc2F)CC1 [Compound 580, (2S,4R)-4-fluoro-N-[(S)-[3-fluoro-4-(1-methylcyclopropyl)phenyl](phenyl)methyl]-1-{2-[2-oxo-4-(2,2,2-trifluoroethyl)piperazin-1-yl]acetyl}pyrrolidine-2-carboxamide] |
| 3920 | 269 | > 100000 | CC1(c2ccc([C@@H](NC(=O)[C@@H]3C[C@@H](F)CN3C(=O)CC3C(=O)Nc4ccccc43)c3ccccc3)cc2F)CC1 (stereo partly drawn) [Compound 581, (2S,4R)-4-fluoro-N-[(S)-[3-fluoro-4-(1-methylcyclopropyl)phenyl](phenyl)methyl]-1-[2-(2-oxo-2,3-dihydro-1H-indol-3-yl)acetyl]pyrrolidine-2-carboxamide] |
| 8080 | 319 | > 100000 | CC1(c2ccc([C@@H](NC(=O)[C@@H]3C[C@@H](F)CN3C(=O)Cn3cnnc3)c3ccccc3)cc2F)CC1 [Compound 582, (2S,4R)-4-fluoro-N-[(S)-[3-fluoro-4-(1-methylcyclopropyl)phenyl](phenyl)methyl]-1-[2-(4H-1,2,4-triazol-4-yl)acetyl]pyrrolidine-2-carboxamide] |
| 1640 | 105 | > 100000 | CN1CCN(C(=O)OCC(=O)N2C[C@H](F)C[C@H]2C(=O)N[C@@H](c2ccccc2)c2ccc(C3(C)CC3)c(F)c2)CC1 [Compound 583, 2-[(2S,4R)-4-fluoro-2-{[(S)-[3-fluoro-4-(1-methylcyclopropyl)phenyl](phenyl)methyl]carbamoyl}pyrrolidin-1-yl]-2-oxoethyl 4-methylpiperazine-1-carboxylate] |
